In publication PMC4154712 (Journal of medicinal chemistry, 2014):

Key:
[1] = system: HCT116 (human colon carcinoma cells); settings: read-out: IC50 ± SD HCT116; ref 10b; cited from earlier work
[2] = system: A549 (human lung carcinoma) cells; settings: read-out: IC50 ± SD A549; MTT method; 48 h; ref 10b; cited from earlier work
HeLa cells = assay: Cell cycle analysis in HeLa cells; type: cell-based, human; settings: 24 h; for cell cycle arrest, in words: 20 nM; for cell cycle arrest (G2/M accumulation), in words: 100 nM
tubulin = assay: Tubulin assembly; type: biochemical; settings: for IC50: read-out: Tubulin Assembly IC50 ± SD, tubulin at 10 μM
[3] = system: MCF-7 human breast carcinoma cells; assay: cells; settings: MCF7, 96 h, read-out: MCF-7 IC50 ± SD
RD cells = assay: Cell cycle analysis in RD cells; type: cell-based; settings: lowest concentration (500 nM), 24 h
HepG2 cells = assay: Cell cycle analysis in HepG2 cells; type: cell-based, human; settings: HepG2, lowest concentration (500 nM), 24 h
PC-3 cells = assay: Cell cycle analysis in PC-3 cells; type: cell-based, human; settings: PC-3, lowest concentration (500 nM), 24 h
in vitro = settings: human, Caco-2
[4] = system: human liver hepatocellular carcinoma cell line HepG2; assay: Growth inhibition of HepG2 cells; type: cell-based; settings: HepG2, 48 h, read-out: IC50 ± SD HepG2
[5] = system: HT29 (human colon adenocarcinoma) cells; settings: read-out: IC50 ± SD HT-29; MTT method; 48 h; ref 10b; cited from earlier work
[6] = system: HeLa (human cervical carcinoma) cells; settings: read-out: IC50 ± SD HeLA; MTT method; 48 h; ref 10b; cited from earlier work

Molecule: COc1ccc(/C=C\c2cc(OC)c(OC)c(OC)c2)cc1O [Compound 2, combretastatin A-4]
- IC50 [1]: 5 ± 0.4 nM
- IC50 [2]: > 10000 nM

Molecule: COc1cc(C(=O)c2ccn(-c3ccccc3)c2)cc(OC)c1OC [Compound 4, (1-Phenyl-1H-pyrrol-3-yl)-(3,4,5-trimethoxyphenyl)methanone]
- cell cycle arrest, in words (HeLa cells): only a minimal effect
- cell cycle arrest (G2/M accumulation), in words (HeLa cells): effectively arrested cell cycle progression

Molecule: COc1cc(C(=O)c2cc[nH]c2)cc(OC)c1OC [Compound 9, (1H-Pyrrol-3-yl)(3,4,5-trimethoxyphenyl)methanone]
- effect on tubulin polymerization (in words) (tubulin): did not inhibit tubulin assembly

Molecule: COc1cc(C(=O)c2ccn(C)c2)cc(OC)c1OC [Compound 10, (1-Methyl-1H-pyrrol-3-yl)(3,4,5-trimethoxyphenyl)methanone]
- effect on tubulin polymerization (in words) (tubulin): did not inhibit tubulin assembly

Molecule: O=C(c1ccccc1)c1ccn(-c2ccccc2)c1 [Compound 11, Phenyl(1-phenyl-1H-pyrrol-3-yl)methanone]
- effect on tubulin polymerization (in words) (tubulin): did not inhibit tubulin assembly
- IC50 (tubulin): > 20000 nM

Molecule: COc1cc(C(=O)c2ccn(-c3ccccc3F)c2)cc(OC)c1OC [Compound 15, (1-(2-Fluorophenyl)-1H-pyrrol-3-yl)(3,4,5-trimethoxyphenyl)-methanone]
- IC50 (tubulin): ≤ 1000 nM

Molecule: COc1cc(C(=O)c2ccn(-c3ccccc3[N+](=O)[O-])c2)cc(OC)c1OC [Compound 18, (1-(2-Nitrophenyl)-1H-pyrrol-3-yl)(3,4,5-trimethoxyphenyl)-methanone]
- IC50 (tubulin): > 20000 nM

Molecule: COc1cc(C(=O)c2ccn(-c3cccc([N+](=O)[O-])c3)c2)cc(OC)c1OC [Compound 19, (1-(3-Nitrophenyl)-1H-pyrrol-3-yl)(3,4,5-trimethoxyphenyl)-methanone]
- IC50 [3]: 230 ± 60 nM

Molecule: COc1cc(C(=O)c2ccn(-c3ccc([N+](=O)[O-])cc3)c2)cc(OC)c1OC [Compound 20, (1-(4-Nitrophenyl)-1H-pyrrol-3-yl)(3,4,5-trimethoxyphenyl)-methanone]
- IC50 (tubulin): > 20000 nM

Molecule: COc1cc(C(=O)c2ccn(-c3cccc(N)c3)c2)cc(OC)c1OC [Compound 22, (1-(3-Aminophenyl)-1H-pyrrol-3-yl)(3,4,5-trimethoxyphenyl)-methanone]
- cell cycle arrest, in words (HeLa cells): as effective as VBL and 2
- cell cycle arrest (G2/M accumulation), in words (HeLa cells): effectively arrested cell cycle progression
- cell cycle arrest, in words (RD cells): effectively arrested cell cycle progression
- cell cycle arrest, in words (HepG2 cells): effectively arrested cell cycle progression
- cell cycle arrest, in words (PC-3 cells): effectively arrested cell cycle progression
- Papp (in vitro): > 5 ×10⁻⁶ cm/s
- efflux ratio (in vitro): < 2

Molecule: CNc1cccc(-n2ccc(C(=O)c3cc(OC)c(OC)c(OC)c3)c2)c1 [Compound 24, (1-(3-(Methylamino)phenyl)-1H-pyrrol-3-yl)(3,4,5-trimethoxyphenyl)methanone]
- IC50 (tubulin): ≤ 1000 nM

Molecule: COc1cc(C(=O)c2ccn(-c3cccc(NC(=N)N)c3)c2)cc(OC)c1OC.Cl [Compound 27, 1-(3-(3-(3,4,5-Trimethoxybenzoyl)-1H-pyrrol-1-yl)phenyl)-guanidine Hydrochloride]
- cell cycle arrest, in words (RD cells): effectively arrested cell cycle progression
- cell cycle arrest, in words (HepG2 cells): effectively arrested cell cycle progression
- cell cycle arrest, in words (PC-3 cells): effectively arrested cell cycle progression

Molecule: COc1cc(C(=O)c2ccn(-c3cccc(NS(C)(=O)=O)c3)c2)cc(OC)c1OC [Compound 28, N-(3-(3-(3,4,5-Trimethoxybenzoyl)-1H-pyrrol-1-yl)phenyl)-methanesulfonamide]
- IC50 (tubulin): ≤ 1000 nM

Molecule: COc1cc(C(=O)c2ccn(-c3cccc(N4CCCCC4)c3)c2)cc(OC)c1OC [Compound 31, (1-(3-(Piperidin-1-yl)phenyl)-1H-pyrrol-3-yl)(3,4,5-trimethoxyphenyl)methanone]
- IC50 (tubulin): > 20000 nM

Molecule: COc1cc(C(=O)c2ccn(-c3cccc(C)c3)c2)cc(OC)c1OC [Compound 33, (1-(3-Tolyl)-1H-pyrrol-3-yl)(3,4,5-trimethoxyphenyl)methanone]
- IC50 (tubulin): ≤ 1000 nM

Molecule: COc1cc(C(=O)c2ccn(-c3ccc(C)cc3)c2)cc(OC)c1OC [Compound 34, (1-(4-Tolyl)-1H-pyrrol-3-yl)(3,4,5-trimethoxyphenyl)methanone]
- IC50 (tubulin): ≤ 1000 nM

Molecule: COc1cc(C(=O)c2ccn(-c3ccc(OC(C)C)cc3)c2)cc(OC)c1OC [Compound 40, (1-(4-Isopropoxyphenyl)-1H-pyrrol-3-yl)(3,4,5-trimethoxyphenyl)-methanone]
- IC50 (tubulin): > 20000 nM

Molecule: COc1cc(C(=O)c2ccn(-c3cccc(OCc4ccccc4)c3)c2)cc(OC)c1OC [Compound 41, (1-(3-(Benzyloxy)phenyl)-1H-pyrrol-3-yl)(3,4,5-trimethoxyphenyl)methanone]
- IC50 (tubulin): > 20000 nM

Molecule: COc1ccc(-n2ccc(C(=O)c3cc(OC)c(OC)c(OC)c3)c2)cc1[N+](=O)[O-] [Compound 45, (1-(4-Methox y-3-ni tro phenyl)-1H-pyrrol-3-yl)(3,4,5-trimethoxyphenyl)methanone]
- IC50 (tubulin): 15000 ± 70 nM

Molecule: COc1cc(-n2ccc(C(=O)c3ccccc3)c2)cc(OC)c1OC [Compound 50, Phenyl(1-(3,4,5-trimethoxyphenyl)-1H-pyrrol-3-yl)methanone]
- IC50 (tubulin): > 20000 nM

Molecule: COc1ccc(C(=O)c2ccn(-c3cc(OC)c(OC)c(OC)c3)c2)cc1OC(C)C [Compound 53, (3-Isopropoxy-4-methoxyphenyl)(1-(3,4,5-trimethoxyphenyl)-1H-pyrrol-3-yl)methanone]
- IC50 (tubulin): > 20000 nM

Molecule: CC(=O)O[C@H]1C(=O)[C@@]2(C)[C@H]([C@H](OC(=O)c3ccccc3)[C@]3(O)C[C@H](OC(=O)[C@H](O)[C@@H](NC(=O)c4ccccc4)c4ccccc4)C(C)=C1C3(C)C)[C@]1(OC(C)=O)CO[C@@H]1C[C@@H]2O [PTX, paclitaxel]
- IC50 [4]: 2037 ± 2 nM
- IC50 [2]: 7 ± 2 nM

Molecule: CC[C@]1(O)C[C@@H]2CN(CCc3c([nH]c4ccccc34)[C@@](C(=O)OC)(c3cc4c(cc3OC)N(C)[C@H]3[C@@](O)(C(=O)OC)[C@H](OC(C)=O)[C@]5(CC)C=CCN6CC[C@]43[C@@H]65)C2)C1 [VBL, vinblastine]
- IC50 [5]: 30 ± 0.8 nM
- IC50 [6]: 10 ± 0.6 nM
- IC50 [2]: 20 ± 2 nM

Molecule: CC[C@]1(O)C[C@H]2CN(CCc3c([nH]c4ccccc34)[C@@](C(=O)OC)(c3cc4c(cc3OC)N(C=O)[C@H]3[C@@](O)(C(=O)OC)[C@H](OC(C)=O)[C@]5(CC)C=CCN6CC[C@]43[C@@H]65)C2)C1 [VCR, vincristine]
- IC50 [4]: 177 ± 1.6 nM

Molecule: (3-Isopropoxy-4-methoxyphenyl)(1-(3,4,5-trimethoxyphenyl)-1H-pyrrol-3-yl)methanone [Compound 52]
- IC50 (tubulin): > 20000 nM
